The subject of data set [1] is gastric juice secretion. The experiment in a line: Gastric juice secretion inhibition activity (pyloric ligature). The conditions noted are these: 100 mg/kg oral, pyloric ligature 30 minutes after administration. Format: in vivo, Wistar strain male rats. On the procedure: Gastric juice secretion inhibition activity
A suspension of each test compound in 5% gum arabic aqueous solution was orally given to Wistar strain male rats (at the age of 7 to 8 weeks, weighing 192 to 241 g; 7-9 rats in the group administered with the test compound; 15 rats in the control group) fasted for 24 hours at a dose of 100 mg of the test compound/5 ml/kg. Thirty minutes after administration (the compounds of Examples 3 and 4) or 60 minutes after administration (the compounds of Examples 1, 2, 5, 6 and 7), pyloric ligature was made under ethereal anesthesia. Four hours after, the stomach was excised under ethereal anesthesia to collect gastric juice. The collected gastric juice was centrifuged (2500 rpm) at 4°C for 10 minutes. After the supernatant was collected, an amount of the gastric juice and its pH were measured using a pH meter. Furthermore, an amount of free hydrochloric acid and the total acidity were measured with Töpfer reagent and phenolphthalein reagent, respectively. Using a part of the gastric juice, pepsin output in the gastric juice was measured using casein as substrate in a manner similar to the method of Anson et al.
(§1) In the control group, 5% gum arabic aqueous solution was orally administered at a dose of 5 ml/kg.

Data set [2] deals with water-immersion stress ulcer. The experiment in a line: Antiulcer activity against water-immersion stress ulcer model. It counts as in vivo, Wistar strain male rats. The conditions noted are these: 100 mg/kg oral. On the procedure:
Antiulcer activity against water-immersion stress ulcer model
A suspension of each test compound in 5% gum arabic aqueous solution was orally given to Wistar strain male rats (at the age of 7 to 8 weeks, weighing 191 to 238 g; 7-8 rats in the group administered with the test compound; 14-16 rats in the control group) fasted for 24 hours at a dose of 100 mg of the test compound/5 ml/kg. Thirty minutes after administration, the animal was immersed up to the xiphisternum in water bath at 22 ± 1°C using a stress cage made by Tokyo University, Faculty of Pharmacology to apply a stress load for 6 hours. After applying the stress load, the rats had the cervical vertebra dislocated to death. Then, the stomach was excised and, spotted and linear erosion and a long diameter of ulcer were microscopically measured to determine an ulcer index and an inhibition rate.
as §1

In data set [3] the test system is aspirin-induced ulcer. The data set is described as follows: Antiulcer activity against aspirin-induced ulcer model. Format: in vivo, Wistar strain male rats. Particulars: 100 mg/kg oral, 30 min before aspirin 200 mg/kg oral. On the procedure:
Antiulcer activity against aspirin-induced ulcer model
A suspension of each test compound in 5% gum arabic aqueous solution was orally given to Wistar strain male rats (at the age of 7 to 8 weeks, weighing 180 to 227 g; 7-8 rats in the group administered with the test compound; 14-16 rats in the control group) fasted for 24 hours at a dose of 100 mg of the test compound/5 ml/kg. Thirty minutes after administration, aspirin was further orally administered at a dose of 200 mg/kg. Seven hours after administration of aspirin, stomach was excised under ethereal anesthesia and spotted and linear erosion and a long diameter of ulcer were microscopically measured to determine an ulcer index and an inhibition rate.
as §1

Data set [4] concerns ethanol-induced ulcer. The experiment in a line: Antiulcer activity against ethanol-induced ulcer model. Format: in vivo, Wistar strain male rats. The conditions noted are these: 100 mg/kg oral. On the procedure: Antiulcer activity against ethanol-induced ulcer model
A suspension of each test compound in 5% gum arabic aqueous solution was orally given to Wistar strain male rats (at the age of 7 to 8 weeks, weighing 180 to 250 g; 5-9 rats in the group administered with the test compound; 4-9 rats in the control group) fasted for 24 hours at a dose of 100 mg of the test compound/5 ml/kg. Thirty minutes after administration, absolute ethanol was further orally administered at a dose of 5 mℓ/kg. One hour after administration of absolute ethanol, the stomach was excised under ethereal anesthesia and the area of an ulcerated portion (mm²) (using microscope) or the proportion (%) thereof to all area of gastric wall (by computer image analysis) were measured to determine an ulcer index and an inhibition rate.
as §1

Data set [5] relates to SLC-ICR or SLC-ddy strain male mice. The data set is described as follows: Acute toxicity. Format: in vivo. Particulars: oral, once, observed for 7 days. On the procedure: A suspension of each test compound in 5% gum arabic aqueous solution was orally given to SLC-ICR or SLC-ddy strain male mice (at the age of 6 to 7 weeks, weighing 26.6 to 33.6 g; 3-8 mice in one group) forcedly once at a dose of 500 mg and 1,000mg of the test compound/5mℓ/kg. For 7 days after the administration, the mice were observed whether they were dead or alive.

SMILES strings stand for the structures.

These results are taken from patent publication EP0463212A1, “Imidazo[2,1-b]thiazole compound anti-ulcer agent containing the same” (NIKKEN CHEMICALS CO., LTD., priority 1990, dated 1992).

For the molecule `CCCC(O)c1c(C)nc2sccn12` (stereo not shown) [Ex. 4, 5-(1-hydroxybutyl)-6-methylimidazo[2,1-b]-thiazole], the “Gastric juice (pH)” value in data set [1] (four hours after) was found to be 2.54 ± 0.27 pH. Moreover, in data set [1] (four hours after, Töpfer reagent), the “Free HCℓ” value turned out to be 14.3 ± 7.4 mEq/l. In data set [1] (four hours after, casein as substrate), this molecule gave a Pepsin output of 83.1 ± 19.4 units/hr. In data set [1] (four hours after, phenolphthalein reagent), this molecule came in with a Total acidity of 68.8 ± 3.6 mEq/l. The same molecule gave a Gastric juice in data set [1] (gastric juice collected four hours after) of 3.6 ± 0.8 mL. Further, the Ulcer index in data set [2] (30 min before water immersion at 22 ± 1°C, stress load for 6 hours) is on record as 7.4 ± 1.5 mm; in data set [3] (stomach excised 7 hours after aspirin, rats fasted 24 hours) it was 41.3 ± 3.8 mm; in data set [4] (30 min before absolute ethanol 5 ml/kg oral, 1 hour after ethanol, area of ulcerated portion (microscope)), 9.2 ± 3.1^** mm^2. Also, the Inhibition rate in data set [2] (30 min before water immersion stress for 6 hours, versus control group) was 68.2%; in data set [3] (versus control group) it was 38.2%; in data set [4] (from ulcer index in mm^2, versus control group), 94.2%. For the same molecule, the “Mortality rate (No. of death/No. of treated)” value in data set [5] (500 mg/kg) is 3/8; in data set [5] (1000 mg/kg), 5/5.
